In data set [1] the test system is SARS-CoV-2 (USA_WA1/2020). Description: microbe, parasite or virus in culture. Type of data set: cell-based. The settings on record: for pEC50: read-out: CPE EC50.
Data set [2] concerns Vero E6 cells.
Where [3] appears, read: SARS-CoV-2 CPE assay, Vero E6 cells.
[4] abbreviates: cytotoxicity counter-assay, Vero E6 cells without virus.
[5] abbreviates: read-out: Cytotox CC50, cytotoxicity counter-assay, Vero E6 cells without virus.
Setting [6] is: […], DMSO 0%, no-virus control 100%, hit confirmation.
The mark [7] stands for this setting: Vero E6 cells without virus, 72 h.
Setting [8] is: SARS-CoV-2 CPE assay, Vero E6 cells, confirmed anti-SARS-CoV-2 compounds.
The mark [9] stands for this setting: SARS-CoV-2 CPE assay, Vero E6 cells, efficacy.

Molecules are shown by their SMILES. pEC50: −log10 of the molar value. Where two headings read alike, the source gives them in different places.

In general, pEC50 refers to −log10 of the EC50, conventionally taken in molar units. By CC50 is commonly meant the concentration giving 50% cytotoxicity.

For the compound `Cc1cc(C)c(CNC(=O)c2cc(-c3ccc(N4CCN(C)CC4)nc3)cc3c2c(C)cn3C(C)C)c(=O)[nH]1` [GSK-503?EZH2 inhibitor], in data set [1] (setting [3]), the “CPE % Efficacy” value came to 111.9% and the pEC50 is 4.90. In data set [2] (setting [4]), the “% Cytotox” value is 0.0%.
Consider `O=C(/C=C/c1ccc(Cl)cc1)N1CCC2(CC1)CN(Cc1ccc(Cl)c(Cl)c1)C(=O)O2` [GSK-682753A], for which, in data set [1] (setting [3]), the “CPE % Efficacy” value came out at 67.7% and the pEC50 is 4.95. For the same compound, the “% Cytotox” value in data set [2] (setting [4]) was 38.6%. Further, in data set [2] (setting [5]), the CC50 amounted to 12.6 µM.
On to `COc1cc(-n2cnc3cc(-c4ccc(Cl)cc4)sc3c2=O)ccc1OCCN1CCCC1` [GW 803430, reference compound], for which the CPE % Efficacy in data set [1] (setting [6]) is on record as 93.3%. Further, the pEC50 in data set [1] is 5.46. The “% Cytotox” value in data set [2] (setting [7]) is recorded as less than 30%.
In the case of `CC(C)c1onc(-c2c(Cl)cccc2Cl)c1COc1ccc(/C=C/c2cccc(C(=O)O)c2)c(Cl)c1` [GW-4064X], in data set [1] (setting [3]), the “CPE % Efficacy” value amounted to 73.5% and the negative-log EC50 (pEC50) is 4.90. Moreover, the “% Cytotox” value in data set [2] (setting [4]) was determined as 60.4%.
For `CCCCCCCCC(=O)N[C@H](CN1CCCC1)[C@H](O)c1ccc2c(c1)OCCO2` [Genz-123346 (free base), reference compound], the CPE % Efficacy in data set [1] (setting [6]) was 99.4%. Moreover, in data set [1], the negative logarithm of the EC50 (pEC50) is 5.00. Moreover, the “% Cytotox” value in data set [2] (setting [7]) is less than 30%.
Regarding `Cc1c(C(=O)Nc2cccc(C(F)(F)F)c2)cc(-c2ccccc2)n1CCCN1CCOCC1` [HC-067047], the pEC50 in data set [1] (setting [8]) was 5.00. The “CPE % Efficacy” value in data set [1] (setting [9]) stood at 64.2%. Besides, the “% Cytotox” value in data set [2] (setting [4]) was 45.7%.
Regarding `Cc1nc(Nc2cnn(C3CCNCC3)c2)nc2c1N(C)C(=O)c1cc3ccccc3cc1N2C` [HTH-01-015], in data set [1] (setting [8]), the pEC50 was 4.95. Further, the “CPE % Efficacy” value in data set [1] (setting [9]) turned out to be 95.2%. Further, the “% Cytotox” value in data set [2] (setting [4]) worked out at 40.5%. Also, the CC50 in data set [2] (setting [5]) worked out at 12.6 µM.
Turning to `N#Cc1c(C2CCNCC2)cc(-c2c(O)cccc2OCC2CC2)nc1N` [IKK-2 inhibitor VIII, reference compound], the CPE % Efficacy in data set [1] (setting [6]) stood at 91.7%. The pEC50 in data set [1] is 5.15. In addition, in data set [2] (setting [7]), the “% Cytotox” value is less than 30%.
Turning to `O=C(c1ccc(Nc2nccc(-c3cc4ccccc4s3)n2)cc1)N1CCC(N2CCCC2)CC1` [IKK-16], in data set [1] (setting [8]), the negative-log EC50 (pEC50) was 5.45. The “CPE % Efficacy” value in data set [1] (setting [9]) is 110.2%. In addition, in data set [2] (setting [4]), the “% Cytotox” value is 107.2%. The CC50 in data set [2] (setting [5]) worked out at 10 µM.
In the case of `CC1(C)CN2C(CSC(=NC3CCCCC3)NC3CCCCC3)=CSC2=N1.Cl.Cl` [IT1t dihydrochloride, reference compound], the CPE % Efficacy in data set [1] (setting [6]) turned out to be 96.3%. Besides, the pEC50 in data set [1] is 5.46. Moreover, the “% Cytotox” value in data set [2] (setting [7]) is recorded as less than 30%.
As for `C[C@H](CCC(=O)O)C[C@H](C)C[C@H](C)C(=O)/C=C(\O)[C@H](C)C[C@H](C)C/C=C/[C@@H](C)[C@@H](O)[C@@H](C)[C@@H](O)C[C@@H]1CC[C@@](C)([C@H]2CC[C@@](C)([C@@H](C)O)O2)O1` [Ionomycin(Calciumsalt)], in data set [1] (setting [8]), the pEC50 is 5.11. Moreover, the “CPE % Efficacy” value in data set [1] (setting [9]) is listed as 90.4%. For the same compound, in data set [2] (setting [4]), the “% Cytotox” value was determined as 69.7%. Also, the CC50 in data set [2] (setting [5]) was determined as 6.95 µM.
Regarding `CCCCN1[C@@H]2CC[C@H]1CC(OC(c1ccc(F)cc1)c1ccc(F)cc1)C2.Cl` (some centres unmarked) [JHW 007 hydrochloride], in data set [1] (setting [8]), the pEC50 was 5.15. In addition, in data set [1] (setting [9]), the “CPE % Efficacy” value is given as 87.4%. The “% Cytotox” value in data set [2] (setting [4]) was 38.8%. In addition, in data set [2] (setting [5]), the CC50 was determined as 12.6 µM.
The matching figures for `COc1ccccc1Nc1nc(-c2sc(NC(C)=O)nc2C)cs1` [JNJ0966]: 4.95, 38.6%, 61.5% and 11.2 µM.
For the compound `CN(C)CC(=O)N1CCC(c2ccc(NC(=O)c3nc(C#N)c[nH]3)c(C3=CCCCC3)c2)CC1` [JNJ-28312141], in data set [1] (setting [3]), the “CPE % Efficacy” value is reported as 37.8% and the pEC50 was 4.85. In addition, the “% Cytotox” value in data set [2] (setting [4]) is 60.9%. Further, the CC50 in data set [2] (setting [5]) was determined as 12.6 µM.
Compound `COc1ccc2c(c1)CN(C(=O)CCN1CCC(Cc3ccccc3)CC1)CCS2` [JTV519 Hemifumarate, reference compound] displayed a CPE % Efficacy in data set [1] (setting [6]) of 85.7%. Further, the pEC50 in data set [1] is 5.26. Besides, in data set [2] (setting [7]), the “% Cytotox” value is less than 30%.
As to `COc1ccc2sc(NC(c3ccc(OC(F)F)cc3)c3ccc4cccnc4c3O)nc2c1` (centres unmarked) [KIN1408], the pEC50 in data set [1] (setting [8]) is 6.05. Besides, in data set [1] (setting [9]), the “CPE % Efficacy” value is reported as 69.8%. Moreover, the “% Cytotox” value in data set [2] (setting [4]) turned out to be 77.9%. The CC50 in data set [2] (setting [5]) worked out at 0.71 µM.
As for `COc1ccc(S(=O)(=O)N(CCO)c2ccccc2CN(C)C/C=C/c2ccc(Cl)cc2)cc1` [KN-93], the negative logarithm of the EC50 (pEC50) in data set [1] (setting [8]) is 4.95. The “CPE % Efficacy” value in data set [1] (setting [9]) was 69.0%. Also, in data set [2] (setting [4]), the “% Cytotox” value is given as 34.4%. Moreover, the CC50 in data set [2] (setting [5]) is 11.2 µM.
For the compound `CC(=O)O/N=C1\C(=O)N(Cc2cc(Cl)ccc2Cl)c2ccc(Cl)cc21` [LDN-57444], the pEC50 in data set [1] (setting [8]) was 4.95. Besides, in data set [1] (setting [9]), the “CPE % Efficacy” value is reported as 129.8%. Besides, in data set [2], the “% Cytotox” value is recorded as 40.6% and the cytotoxic concentration (CC50) amounted to 12.6 µM.
Take `COc1cc(-c2cc(-c3ccc(N4CCNCC4)cc3)cnc2C)cc(OC)c1OC` [LDN-214117]: in data set [1] (setting [3]), the “CPE % Efficacy” value is on record as 39.2% and the pEC50 was 4.95. Also, the “% Cytotox” value in data set [2] (setting [4]) came out at 53.6%. In addition, the CC50 in data set [2] (setting [5]) was found to be 11.2 µM.
In the case of `CS(=O)(=O)NCC1CCC(Nc2nc3c(s2)CCSc2ccccc2-3)CC1` (centres unmarked) [LU AA33810], in data set [1] (setting [3]), the “CPE % Efficacy” value is 48.3% and the pEC50 is 4.90. For the same compound, the “% Cytotox” value in data set [2] (setting [4]) is 0.0%.
On to `CC(C)(C)Cn1c(N)nc2ccc(-c3[nH]c(C(C)(C)C)nc3-c3ccc(F)cc3)nc21` [LY-2228820 (ralimetinib)], for which, in data set [1] (setting [8]), the pEC50 is 5.80. Besides, the “CPE % Efficacy” value in data set [1] (setting [9]) amounted to 85.9%. Moreover, in data set [2] (setting [4]), the “% Cytotox” value is listed as 78.9%. In data set [2] (setting [5]), the CC50 is 12.6 µM.
For the compound `Cl.Fc1ccc2c(CCNCc3cccc(OCC(F)(F)C(F)F)c3)c[nH]c2c1` [Lu AE58054 hydrochloride, reference compound], the CPE % Efficacy in data set [1] (setting [6]) turned out to be 97.2%. Moreover, in data set [1], the pEC50 was 5.00. Further, in data set [2] (setting [7]), the “% Cytotox” value was less than 30%.
On to `CC1(N2CCC(n3c([C@@H]4CCCNC4)nc4ccccc43)CC2)CCCCCCC1` [MCOPPB, reference compound], for which the CPE % Efficacy in data set [1] (setting [6]) was determined as 85.6%. In addition, the pEC50 in data set [1] was 5.46. Further, in data set [2] (setting [7]), the “% Cytotox” value is recorded as less than 30%.
Regarding `Cc1cnc(NC(=O)c2cc(S(=O)(=O)N(C)C)ccc2N2CCCC2)s1` [ML414, reference compound], the pEC50 in data set [1] was 5.49. Moreover, in data set [2] (setting [7]), the “% Cytotox” value is reported as less than 30%.
Take `O=S(=O)(c1cccc2c(I)cccc12)N1CCCNCC1` [ML-7]: in data set [1] (setting [3]), the “CPE % Efficacy” value amounted to 36.2% and the negative-log EC50 (pEC50) was 4.90. In addition, in data set [2] (setting [4]), the “% Cytotox” value is on record as 20.3%. Also, the CC50 in data set [2] (setting [5]) was found to be 19.9 µM.
Regarding `O=S(=O)(c1cccc2c(Cl)cccc12)N1CCCNCC1` [ML-9], in data set [1] (setting [3]), the “CPE % Efficacy” value was found to be 91.0% and the pEC50 was 4.90. Also, the “% Cytotox” value in data set [2] (setting [4]) was determined as 23.3%. The CC50 in data set [2] (setting [5]) came to 11.2 µM.
On to `COc1ccc(C2CC(c3ccccc3)=NN2c2ccc(S(N)(=O)=O)cc2)cc1` (centres unmarked) [ML-141], for which the pEC50 in data set [1] (setting [8]) was 5.05. In data set [1] (setting [9]), the “CPE % Efficacy” value is 65.2%. The “% Cytotox” value in data set [2] (setting [4]) stood at 23.8%.
Turning to `c1ccc(-c2ccc(CNc3nc(-c4ccccn4)nnc3-c3ccccc3)cc2)cc1` [ML-228], the pEC50 in data set [1] (setting [8]) is 6.20. In addition, the “CPE % Efficacy” value in data set [1] (setting [9]) is given as 69.4%. In data set [2] (setting [4]), the “% Cytotox” value worked out at 74.8%. For the same compound, the 50% cytotoxic concentration (CC50) in data set [2] (setting [5]) came out at 0.56 µM.

For the origin of these results see paper PMC7942396, “Drug Repurposing Screen for Compounds Inhibiting the Cytopathic Effect of SARS-CoV-2” (Frontiers in Pharmacology, 2021).
